pIC50: −log10 of the molar value. Like-named read-outs stand apart in the source and are kept apart here.
Key:
[1] = system: Human pleural mesothelioma cells NCI-H226; assay: Proliferation inhibition assay of human pleural mesothelioma cells NCI-H226 (CCK8); assay type: cell-based; conditions: 72 h, 3 days incubation
From the text: Experimental Example 1 Cell Anti-Proliferation Test
Proliferation Inhibition Assay of Human Pleural Mesothelioma Cells NCI-H226 by YAP-TEAD Inhibitor Compounds
Experimental materials and equipment: Human pleural mesothelioma cells NCI-H226 were purchased from Nanjing Cobioer Biosciences CO., LTD. RPMI-1640 medium (Bio-Channel), DMSO (dimethyl sulfoxide), CCK8 (WST-8) cell analysis kit (Beyotime), 0.25% EDTA-Tripsin (trypsin solution), 1×PBS (phosphate buffer, PH7.2), 96-well plate (Corning), fetal bovine serum (FBS), 10,000 U/mL penicillin-G/streptomycin, high-speed cryo-centrifuge (EPPENDORF 5810R), enzyme-linked immunoassay (Tecan Spark).
• A) Tumor cells were cultured in RPMI-1640 (containing 10% FBS and 100 U/mL penicillin-G/streptomycin) at 37° C., 5% CO^2 and saturated humidity until 80-90% density. • B) Removed the culture medium from 10 cm Petri dishes; • C) Rinsed the cells once with 10 ml 1×PBS; • D) Added 4 ml 0.25% EDTA-Tripsin into 37° C., 5% CO^2 incubator for trypsin digestion for 5 minutes, transferred to 15 ml centrifuge tube, centrifuged at 200 g for 5 minutes, discarded the supernatant to get cell precipitate; • E) Resuspend with 4 ml DMEM medium, count and adjust to 10,000 cells/ml. • F) Added cell suspension to 96-well plate with 100 μL per well volume and incubate overnight at 37° C., 5% CO^2 incubator.
• A) Preparation of gradient dilution solution of tested compounds: the test compounds were configured into 1 mM reservoir solution. Then 1.5 μl of the reservoir solution was dissolved in 1.5 ml of DMSO-free culture solution, and then a 3-fold serial gradient dilution was performed with 0.1% DMSO culture solution for a total of 9 concentrations, and the concentrations of the compounds after dilution were as follows: • 333.33 nM, 111.11 nM, 37.03 nM, 12.35 nM, 4.15 nM, 1.37 nM, 0.46 nM, 0.15 nM • B) After thorough mixing, 100 μL of culture compound solution was taken separately to replace the culture solution in the cell culture plate, with 4 replicate wells for each concentration; • C) The cells were transferred to the incubator and incubated for 3 days.
• A) Removed the cell culture plate and added 10 μl of CCK-8 (WST-8) solution per well in the biosafety cabinet. • B) Placed the cell culture plate back into the incubator and continued incubation for 3 hours. • C) Determined the absorbance value by selecting 450 nm on a TECAN enzyme-linked immunoassay detector.
The cell viability (% Cell Viability) was calculated using the following formula.
[formula] • A (dosing): absorbance of wells with cells, CCK8 solution and drug solution • A (blank): absorbance of wells with medium and CCK8 solution but no cells • A (0 dosing): absorbance of wells with cells, CCK8 solution and no drug solution • Cell viability: Cell proliferation viability or cytotoxicity viability IC50 values were obtained by curve fitting with GraphPad Prism 8 software.

[2] = system: YAP-TEAD; assay: Nano luciferase method to detect YAP-TEAD inhibitor activity (293T cells transfected with pGL3B-8×GTiiC-nLuc-CMV-fLuc); assay type: cell-based; conditions: Homo sapiens, HEK-293T, transfected 293T cells, 48 hours incubation, read-out: Nano Luciferas detection (IC50)
From the text: Experimental Example 2 Nano Luciferase Method to Detect YAP-TEAD Inhibitor Activity
(1) Experimental materials and equipment: 293T cells were purchased from Nanjing Cobioer Biosciences CO., LTD. DMEM medium (high sugar, phenol red free, Bio-Channel), DMSO (dimethyl sulfoxide), Lipo6000™ transfection reagent (Beyotime), pGL3B-8×GTiiC-nLuc-CMV-fLuc plasmid, 0.25% EDTA Tripsin (trypsin solution), 1×PBS (phosphate buffer, PH7.2), 96-well white cell culture plate (PerkinElmer), Fetal Bovine Serum (FBS), 10,000 U/mL penicillin-G/streptomycin, High-speed cryo-centrifuge (EPPENDORF 5810R), 37° C. CO^2 incubator, Vi-Cell® cell counter, Envision microplate reader (PerkinElmer).
Resuscitated 293T cells were inoculated into 10 cm petri dishes and placed in a 5% CO^2 incubator at a constant temperature of 37° C. To ensure transfection efficiency, cells in the logarithmic phase (cell density of about 50%-70%) should be used.
One day before transfection, cells in logarithmic phase were digested with Trypsin-EDTA, the reaction was terminated by adding medium, and the cell suspension was made by blowing and mixing with a pipette.
The cell concentration was determined using Vi-cell and diluted to a suspension of 5*10^5 cells per milliliter. Once the cell suspension was prepared, it was gently mixed and 10 ml of liquid was added to a 10 cm petri dish. […] The cells were incubated in a 5% CO^2 incubator at 37° C. for 1 day.
Take two clean and sterile centrifuge tubes, added 750 μL of opti-MEM Medium without antibiotics and serum respectively, then added […] of plasmid (pGL3B-8×GTiiC-nLuc-CMV-fLuc) to one of the tubes and gently blown with a pipette for mixing; the other tube was added with Lipo6000 transfection reagent and gently blown with a pipette for mixing. After standing at room temperature for 5 minutes, the culture medium containing DNA was gently added to the culture medium containing Lipo6000 transfection reagent, mixed by gently inverting the centrifuge tube, and stood at room temperature for 5 minutes.
The above mixture was added evenly dropwise to a 10-cm petri dish and replaced with fresh complete medium after 6 h of incubation.
After 1 day of transfection, Trypsin EDTA was used to digest the cells, medium was added to terminate the reaction, and a cell suspension was made by blowing and mixing with a pipette.
Cell concentration was determined using Vi-cell, and diluted to a suspension of 20,000 cells per milliliter.
After the cell suspension was prepared, it was gently mixed and 100 μL was added to each well in a 96-well plate so that the density of cells to be measured was 2000 per well.
The inoculated cell culture plates were incubated in an incubator, and the compounds in concentration gradients were added after about 24 hours.
The 10 mM compound reservoir solution was diluted to 50 μM with culture medium, and 50 μM compound solution was added sequentially to the third column of the deep-well plate, and 216 μL of culture medium containing 0.5% DMSO to the fourth to eleventh columns.
Gradient dilution: 100 μL of solution was pipetted from the third column and added to the fourth column, after mixing; another 100 μL of solution was pipetted from the fourth column and added to the fifth column, and the operation was repeated until the eleventh column.
Using a multichannel pipette, 25 μL of compound solution was pipetted from the deep-well plate and added to the 96-well culture plate, and each compound was repeated four times on the 96-well plate. A concentration gradient with a maximum concentration of 10,000 nM, 1:3.16, was eventually formed on the 96-well plate.
The 96-well plate was incubated in a 5% CO^2 incubator at a constant temperature of 37° C. for 48 hours, then removed and equilibrated at room temperature for 10 minutes.
100 μL of detection reagent was added to each well and placed on a horizontal shaker at low speed for 10 minutes to fully lyse the cells. […]

[3] = reference compounds of WO2009081259A1

| SMILES | pIC50 [1] | pIC50 [2] | pIC50 [1, 3] | pIC50 [2, 3] |
| --- | --- | --- | --- | --- |
| C=CC(=O)N1CCC(c2cc(-c3ccsc3)cnc2Nc2ccc(C(F)(F)F)cc2)CC1 [Compound T98] | 5.30 to 6.00 | 6.00 to 7.00 | – | – |
| C=CC(=O)N1CCC(c2cc(-c3cccs3)cnc2Nc2ccc(C(F)(F)F)cc2)CC1 [Compound T99] | 5.30 to 6.00 | 6.00 to 7.00 | – | – |
| FC(F)(F)c1ccc(Nc2ncc(Cl)cc2C2CCNCC2)cc1 [Reference compound 4, reference compound] | – | – | < 5.30 | < 5.30 |
| C=CC(=O)N1CCC(c2ccc(OC)nc2Nc2ccc(C(F)(F)F)cc2)CC1 [Compound T33] | 6.00 to 7.00 | ≥ 7.00 | – | – |
| C=CC(=O)N1CCC(c2c(OC)ccnc2Nc2ccc(C(F)(F)F)cc2)CC1 [Compound T35] | 6.00 to 7.00 | 6.00 to 7.00 | – | – |
| C=CC(=O)N1CCC(c2cc(C(F)(F)F)cnc2Oc2ccc(C(F)(F)F)cc2)CC1 [Compound T39] | 6.00 to 7.00 | 6.00 to 7.00 | – | – |
| C=CC(=O)N1CCC(c2ccnnc2Nc2ccc(C(F)(F)F)cc2)CC1 [Compound T42] | 6.00 to 7.00 | 6.00 to 7.00 | – | – |
| Cc1ccc(C2CCNCC2)c(Nc2ccc(C(F)(F)F)cc2)n1 [Reference compound 2, reference compound] | – | – | < 5.30 | < 5.30 |
| C=CC(=O)N1CCC(c2nc(C)c(C)nc2Nc2ccc(C(F)(F)F)cc2)CC1 [Compound T93] | 6.00 to 7.00 | 6.00 to 7.00 | – | – |
| C=CC(=O)N1CCC(c2cc(-c3ccncc3)cnc2Nc2ccc(C(F)(F)F)cc2)CC1 [Compound T97] | 5.30 to 6.00 | 6.00 to 7.00 | – | – |
| C=CC(=O)N1CCC(c2cc(C#N)cnc2Oc2ccc(C(F)(F)F)cc2)CC1 [Compound T74] | 6.00 to 7.00 | 6.00 to 7.00 | – | – |
| FC(F)(F)c1ccc(Oc2ncc(Cl)cc2C2CCNCC2)cc1 [Reference compound 7, reference compound] | – | – | < 5.30 | < 5.30 |
| C=C(F)C(=O)N1CCC(c2cccnc2Oc2ccc(C(F)(F)F)cc2)C(F)(F)C1 (centres unmarked) [Compound T81] | 6.00 to 7.00 | 6.00 to 7.00 | – | – |
| C=CC(=O)N1CCC(c2cc(OC)cnc2Nc2ccc(C(F)(F)F)cc2)CC1 [Compound T34] | 6.00 to 7.00 | 6.00 to 7.00 | – | – |
| FC(F)(F)c1ccc(Nc2ncc(C(F)(F)F)cc2C2CCNCC2)cc1 [Reference compound 5, reference compound] | – | – | < 5.30 | < 5.30 |
| C=CC(=O)N1CCC(c2cncnc2Nc2ccc(C(F)(F)F)cc2)CC1 [Compound T43] | 6.00 to 7.00 | 6.00 to 7.00 | – | – |
| C=C(F)C(=O)N1CCC(c2cccnc2Nc2ccc(C(F)(F)F)cc2)CC1 [Compound T51] | 6.00 to 7.00 | 6.00 to 7.00 | – | – |

Next, values leading:

| pIC50 [1] | pIC50 [2] | pIC50 [1, 3] | pIC50 [2, 3] | SMILES |
| --- | --- | --- | --- | --- |
| ≥ 7.00 | ≥ 7.00 | – | – | C=CC(=O)N1CCC(c2c(C)ccnc2Nc2ccc(C(F)(F)F)cc2)CC1 [Compound T23] |
| ≥ 7.00 | ≥ 7.00 | – | – | C=CC(=O)N1CCC(c2nccnc2Nc2ccc(C(F)(F)F)cc2)C1 (centres unmarked) [Compound T18] |
| ≥ 7.00 | ≥ 7.00 | – | – | C=CC(=O)N1C(C)CC(c2cccnc2Oc2ccc(C(F)(F)F)cc2)CC1C (centres unmarked) [Compound T80] |
| ≥ 7.00 | ≥ 7.00 | – | – | C=CC(=O)N1CC=C(c2cccnc2Nc2ccc(S(F)(F)(F)(F)F)cc2)C1 [Compound T9] |
| ≥ 7.00 | ≥ 7.00 | – | – | C=CC(=O)N1CC(c2nccnc2Nc2ccc(C(F)(F)F)cc2)C1 [Compound T20] |
| ≥ 7.00 | ≥ 7.00 | – | – | C=CC(=O)N1CC=C(c2cccnc2Nc2ccc(C)cc2)C1 [Compound T14] |
| ≥ 7.00 | ≥ 7.00 | – | – | C=CC(=O)N1CC=C(c2nccnc2Nc2ccc(C(F)(F)F)cc2)C1 [Compound T19] |
| 6.00 to 7.00 | 6.00 to 7.00 | – | – | C=CC(=O)N1CCC(c2cc(-c3cn[nH]c3)cnc2Nc2ccc(C(F)(F)F)cc2)CC1 [Compound T55] |
| 6.00 to 7.00 | 6.00 to 7.00 | – | – | C=CC(=O)N1CCC(c2cc(C)cnc2Oc2ccc(C(F)(F)F)cc2)CC1 [Compound T44] |
| 6.00 to 7.00 | ≥ 7.00 | – | – | C=CC(=O)N1CCC(c2cc(-c3cn(C)cn3)cnc2Nc2ccc(C(F)(F)F)cc2)CC1 [Compound T62] |
| ≥ 7.00 | ≥ 7.00 | – | – | C=CC(=O)N1CCC(c2c(Cl)ccnc2Nc2ccc(C(F)(F)F)cc2)CC1 [Compound T29] |
| ≥ 7.00 | ≥ 7.00 | – | – | C=CC(=O)N1CCC(c2cc(-c3ccccc3)cnc2Nc2ccc(C(F)(F)F)cc2)CC1 [Compound T56] |
| ≥ 7.00 | ≥ 7.00 | – | – | C=CC(=O)N1CC=C(c2cccnc2Nc2ccc(C)cc2)CC1 [Compound T12] |
| ≥ 7.00 | ≥ 7.00 | – | – | C=CC(=O)N1CCC(c2cc(Cl)cnc2Nc2ccc(C(F)(F)F)cc2)CC1 [Compound T28] |
| ≥ 7.00 | ≥ 7.00 | – | – | C=CC(=O)N1CCC(c2cccnc2Nc2ccc(S(F)(F)(F)(F)F)cc2)C1 (centres unmarked) [Compound T8] |
| ≥ 7.00 | ≥ 7.00 | – | – | C=CC(=O)N1CCC(c2cccnc2Nc2ccc(S(F)(F)(F)(F)F)cc2)CC1 [Compound T6] |
| ≥ 7.00 | ≥ 7.00 | – | – | C=CC(=O)N1CCC(c2ccc(F)nc2Nc2ccc(C(F)(F)F)cc2)CC1 [Compound T24] |
| ≥ 7.00 | ≥ 7.00 | – | – | C=CC(=O)N1CCC(c2ccc(C)nc2Nc2ccc(C(F)(F)F)cc2)CC1 [Compound T21] |
| ≥ 7.00 | ≥ 7.00 | – | – | C=CC(=O)N1CC(c2cccnc2Nc2ccc(S(F)(F)(F)(F)F)cc2)C1 [Compound T10] |
| ≥ 7.00 | ≥ 7.00 | – | – | C=CC(=O)N1CCC(c2cccnc2Nc2ccc(C)cc2)C1 (centres unmarked) [Compound T13] |
